Test [1] has as its system MDM2 alternative splicing in Rh18 cells. Nature of the test: In vitro alternative splicing assay (MDM2, RT-PCR). Format: cell-based. To be noted: Rh18, 8 h, PCR (FIG. 9). The protocol: Briefly, following an 8 h exposure of exponentially growing cells to drug, total RNA was isolated using TRIzol reagent (Invitrogen, Carlsbad, Calif.). Total RNA (1 μg) was used to convert the mRNA to cDNA by using random primers, Oligo(dT)16 and Omniscript Reverse Transcription Kit (Qiagen, Germantown, Md.). PCR analyses were performed using specific oligonucleotides (see Table I) and standard amplification protocols. PCR products were separated by agarose gel electrophoresis, visualized by ethidium bromide staining on an UV transilluminator, and recorded. PCR band sizes were calculated by comparing them to the standard EZ Load 100-bp PCR Molecular Ruler (BioRad Laboratories, Hercules, Calif.).

Test [2] has as its system cell lines investigated. Description: Drug combination assays, cell line not stated. Format: cell-based. As to the method:
(§1) Preliminary cytotoxic screenings for each drug used in drug combination assays were performed to determine their cytotoxic dose range. […] Eight concentrations were established by 1:3 serial dilutions of the single drugs and their combinations with the splicing modulators. All drug concentrations were evaluated in triplicate in 96-well cell culture plates. Assays of individual drugs and drug combinations were run on the same tissue culture plate. Cell viability was determined using the CellTiter-Glo reagent.
(§2) Luminescence data obtained from the cell viability determinations were formatted per the requirements of the analytical software (viability data range: >0 and <1). The formatted data were analyzed with the software CalcuSyn 2.1 (Biosoft, Cambridge, UK), which provides quantitative CI values for the drug interaction analyses (see ranges in Supplementary Table S2).

Test [3] relates to c-kit positive bone marrow cells transduced with GFP, WT-U2AF1 or MUT-U2AF1 (S34F). Nature of the test: GFP expression and apoptosis in U2AF1 transduced cells. Format: cell-based, C57BL/6 mice. The protocol: Bone marrow was collected from C57BL/6 mice and pooled together in a single solution, and then c-kit positive cells were selected. The c-kit positive cells were cultured with media enriched with stem cell factor (SCF), Flt-3, IL3, and thromboprotein (TPO), and other cytokines. Murine stem cell virus (MSCV) was used to transduce these cells with one of three constructs as indicated in the figure: GFP (control), U2AF1-IRES-GFP (indicated as WT-U2AF1 in the figure), or U2AF1^S34F-IRES-GFP (indicated as MUT-U2AF1 in the figure). The transduced cells carry a construct that expresses GFP and as indicated wild-type or mutant U2AF1. The control cells construct expresses only GFP. […] The assay data are expressed as the percentage of annexin V stained cells among the GFP positive cells. […] These cells show an increased tendency to apoptosis (i.e. increased expression of annexin V) in the GFP positive cells.

In test [4] the test system is AML blast cells with wild-type or mutant S34F U2AF1, CD34+ cells. Nature of the test: Replication by 5-ethynyl-2′-deoxyuridine incorporation. Format: cell-based. The following applies: concentration dependent; mutant vs wild-type U2AF1 AML blasts vs CD34+ cells. As to the method:
Replication was determined from incorporation of 5-ethynyl-2′-deoxyuridine using standard assay techniques.

Test [5] has as its system SK-MEL-2. Description: Drug combination assay, SK-MEL-2. Format: cell-based. The protocol: as §1, §2
The test system of test [6] is HeLa. Nature of the test: Drug combination assay, HeLa. It counts as cell-based. To be noted: HeLa; inhibitor + compound 19. The protocol: as §1, with “reagent. Drug interactions, in terms of synergism, additive effect, or antagonism, were based on the drugs' Combination Index (CI) (Chou et al., Adv. Enzyme Regul. 1984, 22, 27).” for “reagent.”
as §2, with “S2). […] Therefore, in these two cases the drug interaction was evaluated by comparing the IC50 value of Sudemycin with that of the IC50 values resulting from the serial dilutions of the splicing modulator combined with a constant dose of the non-toxic drug.” for “S2).”

The test system of test [7] is JeKo-1. Description: Drug combination assay, JeKo-1. Format: cell-based. To be noted: inhibitor + compound 19. As to the method:
as §1, with “reagent. Drug interactions, in terms of synergism, additive effect, or antagonism, were based on the drugs' Combination Index (CI) (Chou et al., Adv. Enzyme Regul. 1984, 22, 27).” for “reagent.”
as §2, with “S2). […] Therefore, in these two cases the drug interaction was evaluated by comparing the IC50 value of Sudemycin with that of the IC50 values resulting from the serial dilutions of the splicing modulator combined with a constant dose of the non-toxic drug.” for “S2).”

Test [8] deals with PC-3. Description: Drug combination assay, PC-3. It counts as cell-based. To be noted: inhibitor + compound 19. As to the method:
as §1, with “reagent. Drug interactions, in terms of synergism, additive effect, or antagonism, were based on the drugs' Combination Index (CI) (Chou et al., Adv. Enzyme Regul. 1984, 22, 27).” for “reagent.”
as §2, with “S2). […] Therefore, in these two cases the drug interaction was evaluated by comparing the IC50 value of Sudemycin with that of the IC50 values resulting from the serial dilutions of the splicing modulator combined with a constant dose of the non-toxic drug.” for “S2).”

The subject of test [9] is Sk-N-AS. Nature of the test: Drug combination assay, Sk-N-AS neuroblastoma. Format: cell-based. The following applies: Sk-N-AS; inhibitor + compound 19. The protocol:
as §1, §2

Test [10] relates to WiDr. Nature of the test: Drug combination assay, WiDr. The following applies: inhibitor + compound 19. It counts as cell-based. The protocol: as §1, with “reagent. Drug interactions, in terms of synergism, additive effect, or antagonism, were based on the drugs' Combination Index (CI) (Chou et al., Adv. Enzyme Regul. 1984, 22, 27).” for “reagent.”
as §2, with “S2). […] Therefore, in these two cases the drug interaction was evaluated by comparing the IC50 value of Sudemycin with that of the IC50 values resulting from the serial dilutions of the splicing modulator combined with a constant dose of the non-toxic drug.” for “S2).”

As for `CC(/C=C/[C@@H]1C[C@]2(CO2)CC(C)(C)O1)=C\C[C@H]1CC[C@@H](NC(=O)/C=C\[C@H](C)OC(=O)N(C)C)CC1` [compound 19, (S,Z)-5-(((1R,4R)-4-((2E,4E)-5-((3R,5S)-7,7-Methyl-1,6-Dioxaspiro[2.5]Octan-5-Yl)-3-Methylpenta-2,4-Dien-1-Yl)Cyclohexyl)Amino)-5-Oxopent-3-En-2-Yl Dimethylcarbamate], the “alternative MDM2 splicing” value in test [1] was “induction of alternative MDM2 splicing”. In addition, in test [2] (all cell lines investigated), the “synergy with PI3K/mTOR inhibition” value is listed as “synergy is also seen”. Moreover, the “apoptosis (annexin V stained cells among GFP positive cells)” value in [3] (75 or 100 nM) is “cells expressing mutant U2AF1 the most sensitive”. The “effect on expression of GFP from the splicing construct” value in test [3] (concentration dependent, GFP vs WT-U2AF1 vs MUT-U2AF1 cells) is recorded as “greater sensitivity realized in the mutant U2AF1 cells”. The effect on replication result in test [4] is listed as “cells expressing mutant U2AF1 are extremely sensitive”.
As for `CO[C@H]1C[C@@H]2CC[C@@H](C)[C@@](O)(O2)C(=O)C(=O)N2CCCC[C@H]2C(=O)O[C@H]([C@H](C)C[C@@H]2CC[C@@H](OC(=O)C(C)(CO)CO)[C@H](OC)C2)CC(=O)[C@H](C)/C=C(\C)[C@@H](O)[C@@H](OC)C(=O)[C@H](C)C[C@H](C)/C=C/C=C/C=C/1C` [Temsirolimus], in [5] (Combination Index at ED50, CalcuSyn 2.1, listed drug + compound 19), the “CI in SK-MEL-2 with compound 19” value is recorded as 0.68. Further, the “CI of 19 + inhibitor” value in test [5] (SK-MEL-2, inhibitor + compound 19) was determined as 0.68; in [6] it was 0.35; in test [7], 0.37; in [8], 0.57; in test [9], 0.58; in [10], 0.44. Further, the “Interaction Type” value in test [5] (listed drug combined with compound 19, Ineffective = drug IC50 much higher than 1 μM) is recorded as “Synergism (0.3-0.7)”. The “drug interaction with compound 20” value in [2] is recorded as “demonstrated synergy”.

The values above are taken from US9682993B2, “Anticancer compounds” (ST. JUDE CHILDREN'S RESEARCH HOSPITAL, priority 2012, dated 2017).
